Assay results reported in patent publication US11535621B2, “Heterobicyclic amides as inhibitors of CD38” (Ribon Therapeutics, Inc., priority 2019, dated 2022).

Target: Human CD38 (Homo sapiens (Human), UniProt P28907)
Assay: CD38 enzyme assay
Format: biochemical
Conditions: 2 nM CD38, NAD+ substrate, absorbance at 405 nm
Procedure, shortened: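 IC50 values come from fitting % inhibition against compound concentration with a 4-parameter logistic, or a 3-parameter fit with top/bottom fixed at 100/0 or Hill at 1. Inhibition is scaled between DMSO wells and positive-control wells treated with a quinolinone CD38 inhibitor.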

Sequence of Human CD38 (P28907 whole entry): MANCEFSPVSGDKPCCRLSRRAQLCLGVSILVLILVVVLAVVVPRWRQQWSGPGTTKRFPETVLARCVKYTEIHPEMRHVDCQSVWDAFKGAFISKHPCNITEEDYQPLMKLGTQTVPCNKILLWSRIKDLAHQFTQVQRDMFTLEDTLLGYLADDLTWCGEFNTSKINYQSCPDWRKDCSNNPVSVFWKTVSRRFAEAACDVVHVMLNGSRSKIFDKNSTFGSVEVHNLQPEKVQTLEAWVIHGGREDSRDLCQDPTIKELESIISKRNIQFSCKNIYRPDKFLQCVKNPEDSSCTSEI

Row | IC50 | SMILES
1 | < 10 nM | CC(C)(O)[C@H]1CC[C@H](NC(=O)c2nc(-n3ccnc3)nc3ccsc23)CC1 [Example 210, N-((1r,4r)-4-(2-hydroxypropan-2-yl)cyclohexyl)-2-(1H-imidazol-1-yl)thieno[3,2-d]pyrimidine-4-carboxamide]
2 | < 10 nM | Cc1cc2nc(-n3ccnc3)nc(C(=O)NC3CCC(F)(F)CC3)c2[nH]1 [Example 173]
3 | < 10 nM | CN(C)CC#Cc1ccc(NC(=O)c2nc(-n3ccnc3)nc3cc[nH]c23)cn1 [Example 190, N-(6-(3-(dimethylamino)prop-1-yn-1-yl)pyridin-3-yl)-2-(1H-imidazol-1-yl)-5H-pyrrolo[3,2-d]pyrimidine-4-carboxamide]
4 | 10 to 100 nM | O=C(N[C@H]1CC[C@H](NCCC(F)F)CC1)c1nc(-n2ccnc2)nc2cc[nH]c12 [Example 180]
5 | 10 to 100 nM | COCCO[C@H]1CC[C@@H](NC(=O)c2nc(-n3ccnc3)nc3cc[nH]c23)CC1 [Example 69, 2-(1H-Imidazol-1-yl)-N-((1s,4s)-4-(2-methoxyethoxy)cyclohexyl)-5H-pyrrolo[3,2-d]pyrimidine-4-carboxamide]
6 | 100 to 1000 nM | CNC(=O)c1nc(-n2ccnc2)nc2cc[nH]c12 [Example 70, 2-(1H-Imidazol-1-yl)-N-methyl-5H-pyrrolo[3,2-d]pyrimidine-4-carboxamide]
7 | < 10 nM | O=C(Nc1cccc(Cl)c1)c1nc(-n2ccnc2)nc2cc[nH]c12 [Example 88, N-(3-Chlorophenyl)-2-(1H-imidazol-1-yl)-5H-pyrrolo[3,2-d]pyrimidine-4-carboxamide]
8 | 10 to 100 nM | O=C(NC1CCN(CCC(F)(F)F)C1)c1nc(-n2ccnc2)nc2cc[nH]c12 (stereo not shown) [Example 67, 2-(1H-Imidazol-1-yl)-N-(1-(3,3,3-trifluoropropyl)pyrrolidin-3-yl)-5H-pyrrolo[3,2-d]pyrimidine-4-carboxamide]
9 | 10 to 100 nM | CC(C)(N[C@H]1CC[C@H](NC(=O)c2nc(-n3ccnc3)nc3cc[nH]c23)CC1)C(F)F [Example 273, N-((1r,4r)-4-((1,1-difluoro-2-methylpropan-2-yl)amino)cyclohexyl)-2-(1H-imidazol-1-yl)-5H-pyrrolo[3,2-d]pyrimidine-4-carboxamide]
10 | 10 to 100 nM | O=C(NC1CCN(C2COC2)CC1)c1nc(-n2ccnc2)nc2cc[nH]c12 [Example 76, 2-(1H-Imidazol-1-yl)-N-(1-(oxetan-3-yl)piperidin-4-yl)-5H-pyrrolo[3,2-d]pyrimidine-4-carboxamide]
11 | < 10 nM | O=C(Nc1cccc(Cl)n1)c1nc(-n2ccnc2)nc2cc[nH]c12 [Example 144]
12 | < 10 nM | O=C(Nc1ccc(F)c(Cl)c1)c1nc(-n2ccnc2)nc2cc[nH]c12 [Example 96, N-(3-Chloro-4-fluorophenyl)-2-(1H-imidazol-1-yl)-5H-pyrrolo[3,2-d]pyrimidine-4-carboxamide]
13 | < 10 nM | CC(C)(O)[C@H]1CC[C@H](NC(=O)c2nc(-n3ccnc3)cc3cn[nH]c23)CC1 [Example 109, N-((1r,4r)-4-(2-hydroxypropan-2-yl)cyclohexyl)-5-(1H-imidazol-1-yl)-1H-pyrazolo[3,4-c]pyridine-7-carboxamide]
14 | > 1000 nM | O=C(NC1CCNCC1)c1nc(-n2ccnc2)nc2cc[nH]c12 [Example 54, 2-(1H-Imidazol-1-yl)-N-(piperidin-4-yl)-5H-pyrrolo[3,2-d]pyrimidine-4-carboxamide]
15 | < 10 nM | O=C(Nc1ccc(Cl)cc1)c1nc(-n2ccnc2)nc2cc[nH]c12 [Example 87, N-(4-Chlorophenyl)-2-(1H-imidazol-1-yl)-5H-pyrrolo[3,2-d]pyrimidine-4-carboxamide]
16 | 100 to 1000 nM | COCCO[C@H]1CC[C@H](NC(=O)c2cc(-n3ccnc3)cc3nc[nH]c23)CC1 [Example 1, 5-(1H-Imidazol-1-yl)-N-((1r,4r)-4-(2-methoxyethoxy)cyclohexyl)-1H-benzo[d]imidazole-7-carboxamide]
17 | 10 to 100 nM | COCCO[C@H]1CC[C@H](NC(=O)c2nc(-n3ccnc3)nc3c(C)c[nH]c23)CC1 [Example 268, 2-(1H-imidazol-1-yl)-N-((1r,4r)-4-(2-methoxyethoxy)cyclohexyl)-7-methyl-5H-pyrrolo[3,2-d]pyrimidine-4-carboxamide]
18 | 10 to 100 nM | CC(C)[C@H](O)CO[C@H]1CC[C@H](NC(=O)c2nc(-n3ccnc3)nc3cc[nH]c23)CC1 (single isomer, unassigned) [Example 119b]
19 | 10 to 100 nM | O=C(Nc1ccc(OCCN2CC3(COC3)C2)nc1)c1nc(-n2ccnc2)cc2cn[nH]c12 [Example 230, N-(6-(2-(2-oxa-6-azaspiro[3.3]heptan-6-yl)ethoxy)pyridin-3-yl)-5-(1H-imidazol-1-yl)-1H-pyrazolo[3,4-c]pyridine-7-carboxamide]

Row | IC50 | SMILES
20 | 100 to 1000 nM | Cc1nc2cc(-n3ccnc3)cc(C(=O)NCc3c(F)cccc3C(F)(F)F)c2[nH]1 [Example 42, N-(2-Fluoro-6-(trifluoromethyl)benzyl)-5-(1H-imidazol-1-yl)-2-methyl-1H-benzo[d]imidazole-7-carboxamide]
21 | 10 to 100 nM | COCCO[C@H]1CC[C@H](NC(=O)c2nc(-n3ccnc3)cc3cn[nH]c23)CC1 [Example 16, 5-(1H-Imidazol-1-yl)-N-((1r,4r)-4-(2-methoxyethoxy)cyclohexyl)-1H-pyrazolo[3,4-c]pyridine-7-carboxamide]
22 | < 10 nM | O=C(Nc1cncc(Cl)c1)c1nc(-n2ccnc2)nc2cc[nH]c12 [Example 141]
23 | > 1000 nM | COCCO[C@H]1CC[C@H](NC(=O)c2nc(-c3cn[nH]n3)nc3cc[nH]c23)CC1 [Example 35, N-((1r,4r)-4-(2-Methoxyethoxy)cyclohexyl)-2-(2H-1,2,3-triazol-4-yl)-5H-pyrrolo[3,2-d]pyrimidine-4-carboxamide]
24 | 10 to 100 nM | COCCO[C@H]1CC[C@H](NC(=O)c2nc(-n3cncc3C)nc3cc[nH]c23)CC1 [Example 36, N-((1r,4r)-4-(2-Methoxyethoxy)cyclohexyl)-2-(5-methyl-1H-imidazol-1-yl)-5H-pyrrolo[3,2-d]pyrimidine-4-carboxamide]
25 | 100 to 1000 nM | O=C(N[C@H]1CC[C@@H](N2CCOCC2)CC1)c1nc(-n2ccnc2)nc2cc[nH]c12 [Example 169]
26 | 10 to 100 nM | CC(F)(F)CN[C@H]1CC[C@H](NC(=O)c2nc(-n3ccnc3)nc3ccsc23)CC1 [Example 246, N-((1r,4r)-4-((2,2-difluoropropyl)amino)cyclohexyl)-2-(1H-imidazol-1-yl)thieno[3,2-d]pyrimidine-4-carboxamide]
27 | < 10 nM | O=C(N[C@H]1CC[C@@H](C(F)(F)F)CC1)c1nc(-n2ccnc2)nc2ccsc12 [Example 122, 2-(1H-imidazol-1-yl)-N-((1s,4s)-4-(trifluoromethyl)cyclohexyl)thieno[3,2-d]pyrimidine-4-carboxamide]
28 | < 10 nM | O=C(NC1CCCC1)c1nc(-n2ccnc2)nc2cc[nH]c12 [Example 90, N-Cyclopentyl-2-(1H-imidazol-1-yl)-5H-pyrrolo[3,2-d]pyrimidine-4-carboxamide]
29 | < 10 nM | O=C(N[C@H]1CC[C@H](C2(O)CC2)CC1)c1nc(-n2ccnc2)cc2ccsc12 [Example 263, N-((1r,4r)-4-(1-hydroxycyclopropyl)cyclohexyl)-5-(1H-imidazol-1-yl)thieno[2,3-c]pyridine-7-carboxamide]
30 | < 10 nM | N#Cc1ccc(O[C@H]2CC[C@H](NC(=O)c3nc(-n4ccnc4)nc4cc[nH]c34)CC2)cc1 [Example 212, N-((1r,4r)-4-(4-cyanophenoxy)cyclohexyl)-2-(1H-imidazol-1-yl)-5H-pyrrolo[3,2-d]pyrimidine-4-carboxamide]
31 | < 10 nM | COc1ccc(NC(=O)c2nc(-n3ccnc3)nc3cc[nH]c23)nc1 [Example 84, 2-(1H-Imidazol-1-yl)-N-(5-methoxypyridin-2-yl)-5H-pyrrolo[3,2-d]pyrimidine-4-carboxamide]
32 | 10 to 100 nM | COCCO[C@H]1CC[C@H](NC(=O)c2cc(-n3ccnc3)nc3ccsc23)CC1 [Example 24, 5-(1H-Imidazol-1-yl)-N-((1r,4r)-4-(2-methoxyethoxy)cyclohexyl)thieno[3,2-b]pyridine-7-carboxamide]
33 | 10 to 100 nM | C[C@@H](O)CO[C@H]1CC[C@H](NC(=O)c2nc(-n3ccnc3)nc3cc[nH]c23)CC1 (single isomer, unassigned) [Example 125a]
34 | > 1000 nM | O=C(NCc1c(F)cccc1C(F)(F)F)c1nc(-c2cncs2)cc2nc[nH]c12 [Example 33, N-(2-Fluoro-6-(trifluoromethyl)benzyl)-6-(thiazol-5-yl)-3I-imidazo[4,5-c]pyridine-4-carboxamide]
35 | < 10 nM | CN1CCN(c2ccc(NC(=O)c3nc(-n4ccnc4)nc4cc[nH]c34)cn2)CC1 [Example 154]
36 | < 10 nM | O=C(N[C@H]1CC[C@@H](C(F)(F)F)CC1)c1nc(-n2ccnc2)nc2cc[nH]c12 [Example 39a, 2-(1H-Imidazol-1-yl)-N-((1s,4s)-4-(trifluoromethyl)cyclohexyl)-5H-pyrrolo[3,2-d]pyrimidine-4-carboxamide]
37 | 100 to 1000 nM | CN(CCC(F)(F)F)[C@H]1CC[C@@H](NC(=O)c2nc(-n3ccnc3)nc3cc[nH]c23)CC1 [Example 111, 2-(1H-imidazol-1-yl)-N-((1s,4s)-4-(methyl(3,3,3-trifluoropropyl)amino)cyclohexyl)-5H-pyrrolo[3,2-d]pyrimidine-4-carboxamide]

Row | SMILES | IC50
38 | O=C(N[C@H]1CC[C@@H](NCC(F)(F)F)CC1)c1nc(-n2ccnc2)cc2cn[nH]c12 [Example 116, 5-(1H-imidazol-1-yl)-N-((1s,4s)-4-((2,2,2-trifluoroethyl)amino)cyclohexyl)-1H-pyrazolo[3,4-c]pyridine-7-carboxamide] | 10 to 100 nM
39 | COCCO[C@H]1CC[C@H](NC(=O)c2nc(-n3cnc(C)c3)nc3cc[nH]c23)CC1 [Example 37, N-((1r,4r)-4-(2-methoxyethoxy)cyclohexyl)-2-(4-methyl-1H-imidazol-1-yl)-5H-pyrrolo[3,2-d]pyrimidine-4-carboxamide] | > 1000 nM
40 | COCCO[C@H]1CC[C@H](NC(=O)c2nc(-n3ccnc3)cc3cn(C)nc23)CC1 [Example 196, 5-(1H-imidazol-1-yl)-N-((1r,4r)-4-(2-methoxyethoxy)cyclohexyl)-2-methyl-2H-pyrazolo[3,4-c]pyridine-7-carboxamide] | 10 to 100 nM
